Where “and” joins values, the source holds several entries; their conditions need not be identical. Equal values may be shown once. Entries after “also recorded” stand apart in the source; their conditions may differ. Read-outs that look alike come from different tables or passages of the source. Marks after values point to notes of the source that are not given here.

Eleven molecules from patent publication US20180051316A1, “DETECTION OF NUCLEIC ACID POLYMERASE CONFORMATIONAL CHANGES USING A NANOTUBE” (priority 2014, published 2018) can be followed below.

For one assay, the target named is T1, KF (Escherichia coli, UniProt P00582, C907S/D355A/E357A/L790C).
T1 construct: Single copies of the Klenow Fragment (KF) of DNA polymerase I were attached to single-walled carbon nanotube devices; made in house; host or cells: E. coli BL21(DE3)
The assay is classed as biochemical. Conditions: 100 μM analog, 25° C., 2 h. On the procedure:
Polymerization products with dNTP analogs and the A/T incorporation template (FIG. 8A) or the G/C incorporation template (FIG. 8B) were electrophoresed on a 5% high-resolution agarose gel. […] After visualization, the image colors were inverted, then changed to black and white.
Positive control reactions contained KF (1 μM), dNTPs or dNTP analogs (100 μM), and A/T or G/C incorporation template-primer (5 μM) in 10 mM Tris, 50 mM NaCl, 10 mM MgCl2, 1 mM DTT, pH 7.9. Reactions to test dNTP analog incorporation contained 100 μM analog in place of its native dNTP, and negative control reactions omitted either the analog or its native dNTP. Reactions were kept at 25° C. for 2 h in a thermal cycler before electrophoresis on a 5% high resolution agarose gel (FIG. 8B).

Assay [1] concerns the target T2, DNA polymerase I (Klenow Fragment) (Escherichia coli, UniProt P00582, C907S/D355A/E357A/L790C).
T2 construct: Single copies of the Klenow Fragment (KF) of DNA polymerase I were attached to single-walled carbon nanotube devices; made in house; host or cells: E. coli BL21(DE3)
The format is biochemical. Particulars: for k: k=(<τopen>+<τclosed>)^−1; for <τclosed> / <τopen>: native dNTP 10 μM, analog 100 μM, average ± standard deviation; for direction of current spike ΔI per base incorporation: KF processing poly(dA)42; for τopen events encompassed by single exponential fit / τopen events deviating from the single exponential fit: poly(dC)42; for τopen events encompassed by single exponential fit: more than 50 s of polymerization data; for direction of ΔI(t) excursions: poly(dC)42 template; for frequency of ΔI(t) excursions relative to dGTP: complementary template-primer; for time constant of second exponential fit to tail of τopen distribution: poly(dC)42 template (FIG. 3B). The protocol: In embodiments, SWCNT-FETs are fabricated and functionalized with a single-cysteine variant of exonuclease-deficient KF (D355A/E357A/L790C/C907S). […] Attachment of KF to SWCNT-FETs is accomplished by soaking the devices in a solution of N-(1-pyrenyl)maleimide (1 mM in ethanol, 30 min), followed by incubation with KF (300 nM KF in a standard KF activity buffer of 20 mM Tris, 50 mM NaCl, 10 mM MgCl2, 100 μM TCEP, pH 8.0). […] Such devices are referred to simply as KF nanocircuits.
In embodiments, homopolymeric templates poly(dA)42, poly(dT)42, poly(dG)42, or poly(dC)42 mixed with complementary dNTP analogs are used for detecting conformational change of a polymerase, e.g., DNA polymerase. In embodiments, each template is fused to an M13 priming site and mixed with an M13 forward primer in a 1:1 stoichiometric ratio; for hybridization, the mixture is heated in a thermal cycler to 95° C. for 5 to 10 min followed by cooling to 65° C. then further cooling with a gradient of 5° C. every five min until reaching room temperature. In embodiments, KF nanocircuits are immersed in activity buffer with the annealed template-primer at 100 nM concentrations. Native or analog dNTPs are added to the buffer in excess, ensuring Vmax conditions for KF catalysis.
In embodiments, measurements consist of monitoring the source-drain current, I(t), through the SWCNT-FET while the attached KF molecule interacted with its surrounding environment. […] In embodiments, I(t) fluctuations are amplified, digitized at 100 kHz, and stored as uninterrupted, 600 s. Between measurements, the KF nanocircuits may be rinsed twice with activity buffer, incubated in buffer for 5 min, then rinsed twice with buffer before introducing another nucleotide and template-primer.
SWCNT FETs were fabricated and functionalized with a single cysteine variant of exonuclease-deficient KF. […] [20,21]
For each measurement, dNTPs were chosen to complement the homopolymeric templates poly(dA)42, poly(dT)42, poly(dG)42, and poly(dC)42. Each template was fused to an M13 priming site and mixed with an M13 forward primer in a 1:1 stoichiometric ratio; for hybridization, the mixture was heated to 95° C. for 5 to 10 minutes followed by cooling to room temperature. SWCNT FETs were immersed in a standard DNA Pol I activity buffer (20 mM Tris, 50 mM NaCl, 10 mM MgCl2, 100 μM TCEP, pH 8.0) with the template-primer hybrid at 100 nM concentration. Native or analog dNTPs were added to the buffer in excess, ensuring Vmax conditions for KF.
Measurements consisted of monitoring the source-drain current I(t) of a SWCNT FET while the attached KF molecule interacted with its surrounding environment.

Where [2] appears, read: complementary homopolymeric template.

T1 sequence (P00582 324-928 D355A/E357A/L790C/C907S): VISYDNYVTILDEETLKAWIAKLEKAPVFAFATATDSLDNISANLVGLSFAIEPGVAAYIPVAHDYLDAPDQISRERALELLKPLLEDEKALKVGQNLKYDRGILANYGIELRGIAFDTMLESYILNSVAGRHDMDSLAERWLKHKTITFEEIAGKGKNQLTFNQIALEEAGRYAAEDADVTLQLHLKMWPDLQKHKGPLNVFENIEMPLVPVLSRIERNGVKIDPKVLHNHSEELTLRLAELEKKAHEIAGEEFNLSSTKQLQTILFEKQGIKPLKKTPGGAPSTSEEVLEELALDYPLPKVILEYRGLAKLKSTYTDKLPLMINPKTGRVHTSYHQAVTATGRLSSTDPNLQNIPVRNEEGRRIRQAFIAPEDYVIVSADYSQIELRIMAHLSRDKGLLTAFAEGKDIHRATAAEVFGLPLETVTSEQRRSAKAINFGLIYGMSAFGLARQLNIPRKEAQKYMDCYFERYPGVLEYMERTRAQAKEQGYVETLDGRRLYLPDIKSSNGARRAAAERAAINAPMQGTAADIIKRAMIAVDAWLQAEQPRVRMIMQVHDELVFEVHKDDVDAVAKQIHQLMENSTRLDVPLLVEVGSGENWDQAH
T2 sequence (P00582 324-928 D355A/E357A/L790C/C907S): as above

On to `Nc1ncnc2c1ncn2[C@H]1C[C@H](O)[C@@H](COP(O)(=S)OP(=O)(O)OP(=O)(O)O)O1` (stereo partly drawn) [α-thio-dATP], for which the “incorporation into dsDNA, native counterpart omitted” value (“incorporation into dsDNA” below) on KF (A/T incorporation template) is on record as “incorporated opposite the template base T”. Besides, in assay [1] (10 μM analog instead of 100 μM, poly(dT)42 template), the “effect of lower analog concentration on DNA polymerization” value is listed as “did not affect DNA polymerization”. The “average KF processing rate k for dNTP incorporation” value (shortened to “average KF processing rate k”) in assay [1] (setting [2]) was determined as 7 s⁻¹. Further, in assay [1] (template poly(dT)42), the k is 6.8 ± 0.4 s⁻¹; the “<τclosed>” value was 0.38 ± 0.21 ms; the “<τopen>” value is 145 ms and 145.9 ± 8.4 ms.

`Nc1ncnc2c1ncn2[C@H]1C[C@H](O)[C@@H](COP(=O)(O)OP(=O)(O)OP(=O)(O)O)O1` [dATP]: in assay [1] (template poly(dT)42), the k came to 16.8 ± 0.4 s⁻¹, the “<τclosed>” value is 0.34 ± 0.18 ms and the “<τopen>” value worked out at 58.9 ± 1.2 ms.

On to `Nc1ccn([C@H]2C[C@H](O)[C@@H](COP(O)(=S)OP(=O)(O)OP(=O)(O)O)O2)c(=O)n1` (stereo partly drawn) [α-thio-dCTP], for which the “incorporation into dsDNA” value on KF (G/C incorporation template) is reported as “incorporated opposite the template base G”. In assay [1] (setting [2]), the “average KF processing rate k” value turned out to be 15 s⁻¹. Besides, in assay [1] (template poly(dG)42), the k came out at 14.5 ± 1.0 s⁻¹, the “<τclosed>” value amounted to 0.33 ± 0.19 ms and the “<τopen>” value is listed as 68.8 ± 4.6 ms.

With `Cc1cn([C@H]2C[C@H](O)[C@@H](COP(=O)(O)OP(=O)(O)OP(=O)(O)O)O2)c(=O)[nH]c1=O` [dTTP, deoxythymidine triphosphate], in assay [1], the “direction of current spike ΔI per base incorporation” value was “negative current spike ΔI<0”. In assay [1] (template poly(dA)42), the k was found to be 14.3 ± 0.5 s⁻¹, the “<τclosed>” value is listed as 0.33 ± 0.12 ms and the “<τopen>” value was found to be 69.6 ± 2.3 ms.

With `Nc1nc2c(ncn2[C@H]2C[C@H](O)[C@@H](COP(=O)(O)OP(=O)(O)OP(=O)(O)O)O2)c(=O)[nH]1` [dGTP], the “average KF processing rate k” value in assay [1] (setting [2]) came out at 41 s⁻¹. Also, in assay [1], the “τopen events encompassed by single exponential fit” value (“τopen events encompassed” below) is above 90% and the “direction of ΔI(t) excursions” value is recorded as “negative ΔI(t) excursions”. Also, in assay [1] (template poly(dC)42), the k was determined as 24.3 ± 4.3 s⁻¹, the “<τclosed>” value was determined as 0.40 ± 0.20 ms and the “<τopen>” value is 40.8 ± 6.0 ms.

Consider `Nc1nc(Cl)c2ncn([C@H]3C[C@H](O)[C@@H](COP(=O)(O)OP(=O)(O)OP(=O)(O)O)O3)c2n1` [6-Cl-2APTP, 2-amino-6-Cl-purine-2′-deoxyriboside-triphosphate], for which, at KF (A/T incorporation template), the “incorporation into dsDNA” value is “incorporated opposite the template base T”. Besides, the “incorporation into dsDNA” value at KF (G/C incorporation template) is reported as “incorporated opposite the template base C”. Moreover, in assay [1] (setting [2]), the “average KF processing rate k” value turned out to be 20 s⁻¹, the “enzyme closure time τclosed compared to native dNTPs” value was “no difference”, the “rate of incorporation compared with native dNTPs” value (“rate … compared with native dNTPs” below) was “compared most favorably to the slowest rates observed for native dGTP incorporation; also recorded: more quickly than native dATP” and the “τopen relative to native dNTP (times longer)” value is reported as “about twice as long”. In addition, in assay [1], the “frequency of ΔI(t) excursions relative to dGTP” value is “two to three times less frequently”, the “τopen events deviating from the single exponential fit” value is given as “Approximately twenty-five percent”, the “τopen events encompassed” value is recorded as “≈ 75%” and the “direction of ΔI(t) excursions” value is recorded as “Positive ΔI(t) excursions”. In assay [1], the “time constant of second exponential fit to tail of τopen distribution” value is recorded as 200 ms. Moreover, the “direction of ΔI(t) current fluctuations” value in assay [1] (complementary template-primers) is “positive current fluctuations”. In assay [1] (heterogeneous substrates, nucleotide mixtures (FIG. 5A, 5C)), the “direction of current spikes” value was “positive current spikes”. Moreover, the “direction of ΔI(t) signals” value in assay [1] (opposite both poly(dC)42 and poly(dT)42 templates) is “inverted amplitude”. The “rate of ΔI(t) excursions relative to dGTP” value in assay [1] (opposite poly(dC)42) is 80%. In assay [1] (template poly(dC)42), the k was 19.7 ± 0.6 s⁻¹, the “<τclosed>” value is 0.20 ± 0.12 ms and the “<τopen>” value is on record as 50.5 ± 1.4 ms. Further, the “<τopen>” value in assay [1] (template poly(dC)42, listed as 6-Cl-dGTP) was found to be 50 ± 1 ms.

`Cc1cn([C@H]2C[C@H](O)[C@@H](COP(O)(=S)OP(=O)(O)OP(=O)(O)O)O2)c(=O)[nH]c1=O` (stereo partly drawn) [α-thio-dTTP]: the “incorporation into dsDNA” value on KF (A/T incorporation template) is “incorporated opposite the template base A”. Besides, the “average KF processing rate k” value in assay [1] (setting [2]) came to 7 s⁻¹. Further, in assay [1] (template poly(dA)42), the k is 6.6 ± 0.3 s⁻¹, the “<τclosed>” value came to 0.29 ± 0.13 ms and the “<τopen>” value is 152.1 ± 6.6 ms.

`Nc1ccn([C@H]2C[C@H](O)[C@@H](COP(=O)(O)OP(=O)(O)OP(=O)(O)O)O2)c(=S)n1` [2-thio-dCTP]: the “incorporation into dsDNA” value on KF (G/C incorporation template) was “incorporated opposite the template base G”. For the same molecule, in assay [1] (setting [2]), the “enzyme closure time τclosed compared to native dNTPs” value was “no difference” and the “rate … compared with native dNTPs” value was “slightly faster; also recorded: approximately the same”. In addition, in assay [1] (template poly(dG)42), the k is on record as 30.6 ± 1.2^b 1/s, the “<τclosed>” value was 0.41 ± 0.15^b ms and the “<τopen>” value is 32.3 ± 1.1^b ms.

Take `Cc1cn([C@H]2C[C@H](O)[C@@H](COP(=O)(O)OP(=O)(O)OP(=O)(O)O)O2)c(=S)[nH]c1=O` [2-thio-dTTP, 2-thio-2′-deoxythimidine-5′-triphosphate]: the “incorporation into dsDNA” value at KF (A/T incorporation template) was “incorporated opposite the template base A”. Moreover, the “direction of current spike ΔI per base incorporation” value in assay [1] was “positive current spikes ΔI>0”. Further, in assay [1] (setting [2]), the “average KF processing rate k” value was found to be 16 s⁻¹, the “enzyme closure time τclosed compared to native dNTPs” value was “no difference” and the “rate … compared with native dNTPs” value is on record as “slightly faster; also recorded: approximately the same”. Further, in assay [1] (template poly(dA)42), the k is 16.3 ± 0.9^b 1/s, the “<τclosed>” value is reported as 0.23 ± 0.14^b ms and the “<τopen>” value is on record as 61.1 ± 3.2^b ms.

For the molecule `Nc1ccn([C@H]2C[C@H](O)[C@@H](COP(=O)(O)OP(=O)(O)OP(=O)(O)O)O2)c(=O)n1` [dCTP], in assay [1] (template poly(dG)42), the k stood at 23.2 ± 3.2 s⁻¹, the “<τclosed>” value is 0.35 ± 0.20 ms and the “<τopen>” value is listed as 42.8 ± 5.0 ms.

Consider `Nc1nc2c(ncn2[C@H]2C[C@H](O)[C@@H](COP(O)(=S)OP(=O)(O)OP(=O)(O)O)O2)c(=O)[nH]1` (stereo partly drawn) [α-thio-dGTP], for which, at KF (G/C incorporation template), the “incorporation into dsDNA” value is on record as “incorporated opposite the template base C”. In addition, in assay [1] (setting [2]), the “average KF processing rate k” value is 15 s⁻¹, the “increase of <τopen> relative to native dNTP” value is listed as 56% and the “τopen relative to native dNTP (times longer)” value was “approximately 2.5”. In assay [1], the “frequency of ΔI(t) excursions relative to dGTP” value was “two to three times less frequently”, the “τopen events deviating from the single exponential fit” value is “Approximately twenty-five percent”, the “τopen events encompassed” value is “≈ 75%” and the “time constant of second exponential fit to tail of τopen distribution” value is 200 ms. Besides, in assay [1] (template poly(dC)42), the k came out at 15.7 ± 0.7 s⁻¹; the “<τclosed>” value was determined as 0.21 ± 0.15 ms; the “<τopen>” value was 63 ± 3 ms and 63.6 ± 2.8 ms.
